± gives the standard deviation of the averaged measurements.
Test system: HeLa
Test: cell viability (CellTiter-Glo) relative to median of lowest-dilution wells of all drugs (fraction); higher = more viable cells
Description: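 HeLa control and CRISPR DDX11 knockout cells were seeded in 384-well plates and incubated for 72 h with each of 64 […] drugs at six concentrations. Viability was read with CellTiter-Glo and normalised to the median of the lowest (6th) dilution wells of all drugs. Two biological replicates (BR1, BR2) are averaged; the concentration unit is not stated.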

[1] = drug concentration (unit not stated): 0.04, genotype: DDX11 knockout
[2] = drug concentration (unit not stated): 0.04, genotype: control (DDX11 wild type)
[3] = drug concentration (unit not stated): 0.12, genotype: DDX11 knockout
[4] = drug concentration (unit not stated): 0.12, genotype: control (DDX11 wild type)
[5] = drug concentration (unit not stated): 0.37, genotype: DDX11 knockout
[6] = drug concentration (unit not stated): 0.37, genotype: control (DDX11 wild type)
[7] = drug concentration (unit not stated): 1.11, genotype: DDX11 knockout
[8] = drug concentration (unit not stated): 1.11, genotype: control (DDX11 wild type)
[9] = drug concentration (unit not stated): 3.33, genotype: DDX11 knockout
[10] = drug concentration (unit not stated): 3.33, genotype: control (DDX11 wild type)
[11] = drug concentration (unit not stated): 10, genotype: DDX11 knockout
[12] = drug concentration (unit not stated): 10, genotype: control (DDX11 wild type)
[13] = drug concentration (unit not stated): 0.01, genotype: DDX11 knockout
[14] = drug concentration (unit not stated): 0.01, genotype: control (DDX11 wild type)

## CC(C)(C)Cn1c(N)nc2ccc(-c3[nH]c(C(C)(C)C)nc3-c3ccc(F)cc3)nc21
[1]
  cell viability: 0.937 ± 0.044
[2]
  cell viability: 0.991 ± 0.022
[3]
  cell viability: 0.96 ± 0.11
[4]
  cell viability: 1.03 ± 0.022
[5]
  cell viability: 0.942 ± 0.088
[6]
  cell viability: 0.988 ± 0.15
[7]
  cell viability: 0.921 ± 0.072
[8]
  cell viability: 1.02 ± 0.1
[9]
  cell viability: 0.84 ± 0.03
[10]
  cell viability: 1.06 ± 0.15
[11]
  cell viability: 0.737 ± 0.061
[12]
  cell viability: 1.03 ± 0.25

## CO[C@@H](C(=O)N1Cc2[nH]nc(NC(=O)c3ccc(N4CCN(C)CC4)cc3)c2C1)c1ccccc1
[1]
  cell viability: 0.971 ± 0.036
[2]
  cell viability: 0.956 ± 0.032
[3]
  cell viability: 0.877 ± 0.023
[4]
  cell viability: 0.943 ± 0.18
[5]
  cell viability: 0.906 ± 0.032
[6]
  cell viability: 0.943 ± 0.13
[7]
  cell viability: 0.744 ± 0.091
[8]
  cell viability: 0.771 ± 0.065
[9]
  cell viability: 0.624 ± 0.11
[10]
  cell viability: 0.645 ± 0.046
[11]
  cell viability: 0.466 ± 0.043
[12]
  cell viability: 0.58 ± 0.1

## COc1ncc(-c2ccc3nccc(-c4ccnnc4)c3c2)cc1NS(=O)(=O)c1ccc(F)cc1F
[13]
  cell viability: 0.657 ± 0.037
[14]
  cell viability: 0.774 ± 0.23
[1]
  cell viability: 0.57 ± 0.044
[2]
  cell viability: 0.661 ± 0.17
[3]
  cell viability: 0.467 ± 0.073
[4]
  cell viability: 0.528 ± 0.19
[5]
  cell viability: 0.33 ± 0.046
[6]
  cell viability: 0.458 ± 0.18
[7]
  cell viability: 0.326 ± 0.042
[8]
  cell viability: 0.416 ± 0.12
[9]
  cell viability: 0.304 ± 0.04
[10]
  cell viability: 0.373 ± 0.12

## C[C@@H]1COCCN1c1cc(-c2ccnn2C)c2ccnc(-c3ccn[nH]3)c2n1
[1]
  cell viability: 1.03 ± 0.056
[2]
  cell viability: 1.022 ± 0.0024
[3]
  cell viability: 0.981 ± 0.083
[4]
  cell viability: 1.02 ± 0.077
[5]
  cell viability: 0.864 ± 0.021
[6]
  cell viability: 0.959 ± 0.29
[7]
  cell viability: 0.517 ± 0.036
[8]
  cell viability: 0.696 ± 0.19
[9]
  cell viability: 0.313 ± 0.045
[10]
  cell viability: 0.398 ± 0.16
[11]
  cell viability: 0.19 ± 0.086
[12]
  cell viability: 0.227 ± 0.096

## O=c1cc(-c2cccc3c2Sc2ccccc2S3)oc(N2CCOCC2)c1
[3]
  cell viability: 1.06 ± 0.039
[4]
  cell viability: 0.988 ± 0.017
[5]
  cell viability: 1.03 ± 0.027
[6]
  cell viability: 1.01 ± 0.065
[7]
  cell viability: 0.9944 ± 0.005
[8]
  cell viability: 0.9715 ± 0.0052
[9]
  cell viability: 0.963 ± 0.023
[10]
  cell viability: 0.998 ± 0.064
[11]
  cell viability: 0.843 ± 0.048
[12]
  cell viability: 0.951 ± 0.17
Drug concentration (unit not stated): 30, genotype: DDX11 knockout
  cell viability: 0.633 ± 0.053
Drug concentration (unit not stated): 30, genotype: control (DDX11 wild type)
  cell viability: 0.854 ± 0.38

## Cc1sc2c(c1C)C(c1ccc(Cl)cc1)=N[C@@H](CC(=O)OC(C)(C)C)c1nnc(C)n1-2 [(+)-JQ-1]
[1]
  cell viability: 1.02 ± 0.059
[2]
  cell viability: 0.977 ± 0.047
[3]
  cell viability: 0.93 ± 0.14
[4]
  cell viability: 0.962 ± 0.17
[5]
  cell viability: 0.849 ± 0.19
[6]
  cell viability: 0.98 ± 0.49
[7]
  cell viability: 0.671 ± 0.033
[8]
  cell viability: 0.827 ± 0.26
[9]
  cell viability: 0.5507 ± 0.0013
[10]
  cell viability: 0.757 ± 0.2
[11]
  cell viability: 0.5098 ± 0.0035
[12]
  cell viability: 0.637 ± 0.18

## CC1(C)CCC(c2ccc(Cl)cc2)=C(CN2CCN(c3ccc(C(=O)NS(=O)(=O)c4ccc(N[C@H](CCN5CCOCC5)CSc5ccccc5)c(S(=O)(=O)C(F)(F)F)c4)cc3)CC2)C1 [ABT-263 (Navitoclax)]
[1]
  cell viability: 1.04 ± 0.045
[2]
  cell viability: 0.983 ± 0.041
[3]
  cell viability: 1 ± 0.021
[4]
  cell viability: 1.02 ± 0.076
[5]
  cell viability: 1.04 ± 0.014
[6]
  cell viability: 1.022 ± 0.0018
[7]
  cell viability: 0.976 ± 0.043
[8]
  cell viability: 1.0084 ± 0.00083
[9]
  cell viability: 1.02 ± 0.048
[10]
  cell viability: 1.06 ± 0.058
[11]
  cell viability: 0.841 ± 0.14
[12]
  cell viability: 0.894 ± 0.22

## O=C(Nc1c[nH]nc1-c1nc2ccc(CN3CCOCC3)cc2[nH]1)NC1CC1 [AT9283]
[13]
  cell viability: 1.03 ± 0.023
[14]
  cell viability: 0.988 ± 0.066
[1]
  cell viability: 0.94 ± 0.015
[2]
  cell viability: 0.939 ± 0.053
[3]
  cell viability: 1.07 ± 0.076
[4]
  cell viability: 1 ± 0.042
[5]
  cell viability: 1.04 ± 0.046
[6]
  cell viability: 1.07 ± 0.069
[7]
  cell viability: 0.769 ± 0.4
[8]
  cell viability: 0.799 ± 0.063
[9]
  cell viability: 0.469 ± 0.41
[10]
  cell viability: 0.504 ± 0.12

## CCN(CCO)CCCOc1ccc2c(Nc3cc(CC(=O)Nc4cccc(F)c4)[nH]n3)ncnc2c1 [AZD1152-HQPA (Barasertib)]
[1]
  cell viability: 0.927 ± 0.032
[2]
  cell viability: 0.985 ± 0.18
[3]
  cell viability: 0.912 ± 0.066
[4]
  cell viability: 1.01 ± 0.22
[5]
  cell viability: 0.883 ± 0.1
[6]
  cell viability: 0.97 ± 0.28
[7]
  cell viability: 0.888 ± 0.051
[8]
  cell viability: 0.964 ± 0.21
[9]
  cell viability: 0.831 ± 0.027
[10]
  cell viability: 0.957 ± 0.25
[11]
  cell viability: 0.813 ± 0.064
[12]
  cell viability: 0.953 ± 0.23

## C=CCn1c(=O)c2cnc(Nc3ccc(N4CCN(C)CC4)cc3)nc2n1-c1cccc(C(C)(C)O)n1 [AZD1775]
[1]
  cell viability: 0.9297 ± 0.0031
[2]
  cell viability: 0.962 ± 0.028
[3]
  cell viability: 0.922 ± 0.021
[4]
  cell viability: 0.951 ± 0.021
[5]
  cell viability: 0.85 ± 0.048
[6]
  cell viability: 0.959 ± 0.025
[7]
  cell viability: 0.423 ± 0.12
[8]
  cell viability: 0.615 ± 0.014
[9]
  cell viability: 0.213 ± 0.0052
[10]
  cell viability: 0.288 ± 0.11
[11]
  cell viability: 0.0863 ± 0.058
[12]
  cell viability: 0.092 ± 0.087
